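48-hour exposure; five concentrations; linearly interpolated endpoints. GI50: concentration for 50% inhibition of growth.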 Active and inactive are the calls of the source. No stated cut-off is given here; in the data, active = GI50 up to about 1.1 µM and inactive = higher.
Columns and labels:
Test in all cases: growth of human tumour cells (NCI), 48 h
[1] = tested on: SK-MEL-2
[2] = tested on: ACHN
[3] = tested on: NCI-H23
[4] = tested on: MDA-N
[5] = tested on: SK-MEL-5
[6] = tested on: SNB-75
[7] = tested on: SR
[8] = tested on: A498
[9] = tested on: HCT-116
[10] = tested on: OVCAR-5
[11] = tested on: PC-3
[12] = tested on: K562
[13] = tested on: NCI/ADR-RES
[14] = tested on: Malme-3M
[15] = tested on: MCF7
[16] = tested on: SK-OV-3
[17] = tested on: UO-31
[18] = tested on: RXF 393
[19] = tested on: DU-145
[20] = tested on: A549
[21] = tested on: SF-268
[22] = tested on: BT-549
[23] = tested on: SNB-19
[24] = tested on: OVCAR-4
[25] = tested on: U-251
[26] = tested on: MDA-MB-231
[27] = tested on: SN12C
[28] = tested on: T47D
[29] = tested on: OVCAR-3
[30] = tested on: NCI-H226
[31] = tested on: Hs-578T
[32] = tested on: HOP-62
[33] = tested on: COLO 205
[34] = tested on: SF-539
[35] = tested on: RPMI-8226
[36] = tested on: HT-29
[37] = tested on: 786-0
[38] = tested on: SW-620
[39] = tested on: HCC 2998
[40] = tested on: SK-MEL-28
[41] = tested on: M14
[42] = tested on: TK-10
[43] = tested on: MDA-MB-435
[44] = tested on: UACC-257
[45] = tested on: KM12
[46] = tested on: HOP-92
[47] = tested on: HCT-15
[48] = tested on: LOX IMVI
[49] = tested on: UACC-62
[50] = tested on: NCI-H460
[51] = tested on: HL-60
[52] = tested on: IGROV-1

Measured: GI50

C=C1c2nc3ccccc3n2C=C(c2ccc(Cl)cc2)N1c1ccc(OCCN2CCOCC2)cc1
inactive: [1] 6.73 µM | [2] 34.9 µM | [3] 28.2 µM | [4] 42.2 µM | [5] 13.4 µM | [6] > 100 µM | [7] 12 µM | [8] > 100 µM | [9] 26.2 µM | [10] > 100 µM | [11] 10.5 µM | [12] 9.82 µM | [13] 12.3 µM | [14] 52 µM | [15] 10.7 µM | [16] > 100 µM | [17] 33.4 µM | [18] 32.7 µM | [19] 49.8 µM | [20] 27.4 µM | [21] 34.7 µM | [22] 39.3 µM | [23] > 100 µM | [24] 12.1 µM | [25] 30.5 µM | [26] 62.4 µM | [27] > 100 µM | [28] 21.4 µM | [29] 37.2 µM | [30] > 100 µM | [31] 19.5 µM | [32] 52.6 µM | [33] 18.9 µM | [34] 55.3 µM | [35] 2.91 µM | [36] 12.2 µM | [37] 25.2 µM | [38] 22 µM | [39] 37.9 µM | [40] 28.9 µM | [41] 15.7 µM | [42] 35.9 µM | [43] 12.6 µM | [44] 22.7 µM | [45] 11.4 µM | [46] 50.8 µM | [48] 11 µM | [49] 19.9 µM | [50] 5.47 µM | [51] 7.91 µM | [52] 14.5 µM
12.7 µM: [47]
